Our source for the EC50 values is paper PMC10867575, “Functional validation of novel levamisole resistance marker S168T in Haemonchus contortus” (International Journal for Parasitology: Drugs and Drug …, 2024).

SMILES strings stand for the structures. Where two headings read alike, the source gives them in different places.

As usually defined, the EC50 is the concentration at which the effect is half-maximal.

The subject of this test is T1, Hco-L-AChR-1.1 (UNC-29.1/UNC-38/UNC-63/ACR-8).
T1 construct: cRNAs co-injected in Xenopus laevis oocytes with H. contortus ancillary ric-3.1, unc-50, unc-74; wild-type clones from earlier studies; S168T acr-8 cloned from isolate MHco18 (UGA2004), vector pTB207
The experiment in a line: two-electrode voltage clamp, Xenopus oocytes. The settings on record: agonist, 100 mM NaCl, 2.5 mM KCl, 1 mM CaCl2, 5 mM HEPES, pH 7.3, currents normalised to 100 μM ACh. The class given is cell-based, Haemonchus contortus. The source says: two-electrode voltage clamp, Xenopus oocytes on Hco-L-AChR-1.1 (UNC-29.1/UNC-38/UNC-63/ACR-8)

Take `CC(=O)OCC[N+](C)(C)C` [ACh, acetylcholine]: the concentration for a half-maximal effect (EC50) (read-out: ACh EC50) amounted to 4.2 ± 1.1 µM.
For the compound `c1ccc([C@H]2CN3CCSC3=N2)cc1` [LEV, levamisole], where the note is “read-out: LEV EC50”, the EC50 was 3.2 ± 1.1 µM.
